Earlier results in patent US10752566B2, “Solvent compositions for use as replacements for slow evaporating solvents” (TBF ENVIRONMENTAL TECHNOLOGY INC., priority 2015, dated 2020).

Conditions: PCBTF

For FC(F)(F)c1ccc(Cl)cc1 [PCBTF, para-Chlorobenzotrifluoride], the specific gravity is listed as 1.34.
